Assay results: US20090259167A1, “METHODS AND COMPOSITIONS FOR DOSE-DEPENDENT PHOTODYNAMIC THERAPY OF DISORDERS” (THE GENERAL HOSPITAL CORPORATION, priority 2008, published 2009)
Entries after “also recorded” stand apart in the source; their conditions may differ.

Legend:
[1] = system: skin; assay: Clinical examination of inflammatory response to ALA-PDT (635 nm red light); assay type: in vivo, Yorkshire swine
Source text: (§1) Three female domestic Yorkshire swine weighing 30 to 50 kg were used in the study, which was approved by the MGH Institutional Subcommittee for Research Animal Care. Porcine and human skin have similar histology and physiology, with notable differences. Pigs have smaller sebaceous glands and a thicker dermis. However their thick stratum corneum, lack of fur and metabolism of topical or injected ALA are similar to humans (Meyer 1996), (de Blois, Thissen et al. 2001).
(§2) 5-Aminolevulinic acid hydrochloride from Biosynth International Inc. (Naperville, Ill., USA) was diluted in normal saline (0.9% Sodium Chloride, Hospira, Inc., Illinois, USA) into different concentrations. ALA solutions were titrated in halves from 1.000% to 0.0005%. Osmolarity was not corrected. ALA solution pH varied with concentration from acidic to neutral (1.000%≈pH 1; 0.500%≈pH 3; 0.250 to 0.008%≈pH 5; 0.004 to 0.0005%≈pH 7). Normal saline was used as a control (pH=7). […] In this study, ALA solutions were not buffered because buffering can induce a delay in PpIX formation (Bech et al. 1997). Unbuffered solutions were prepared immediately before intradermal injection. A volume of 0.05-cc/cm^2 skin area was injected at a depth of 2 to 4 mm, using a special 4 mm-long 30 gauge needle (TSK STEiJECT, Toshigi-ken, Japan). The beveled outlet of this needle covers the distal 1 mm near its tip.
(§3) Each animal's flanks were cleansed, clipped of hair, cleansed and rinsed again, dried with a towel, mapped and divided into 4 cm×7 cm rectangular areas for the test spots. Each test area received an injection of a given ALA concentration, with appropriate control sites, which received either no treatments, ALA alone, or light exposure alone. After the ALA injections, the skin surface was wiped clean again. Three hours after ALA administration, each test area was used for repeated measurements of (1) digital fluorescence photography to document the gross distribution of porphyrin synthesis; and (2) 8-mm skin biopsies obtained from at least 2 sites for each condition prior to light exposure, for evaluation of porphyrin distribution by fluorescence microscopy. After the 3-hour-incubation skin biopsies, red light exposures were performed using a 635 nm LED array (Omnilux, Photo Therapeutics, Inc, Cheshire, UK), delivered at 100 mW/cm^2 irradiance. Biopsies were taken from the control sites at the same times as from test sites, to control for the unlikely possibility that the small amount of ALA injected would cause a systemic level sufficient to stimulate remote synthesis of porphyrins. Measurements and biopsies were repeated after 24 hours, prior to euthanasia.
Clinical examination and grading of cutaneous responses were performed before, during and 1 hour after the end of the last red light exposure. This is sufficient time for an acute inflammatory response to develop. The following day, before euthanasia, final clinical evaluation was performed. Inflammatory response was graded from 0 to 3 for each site, where 0 represents no reaction; 1, mild (any redness or edema); 2, moderate (prominent redness and/or edema) and 3, severe reaction (signs of necrosis, blistering, purpura).

[2] = depending on the pH and the concentration of the solution; cited from earlier work
[3] = system: porphyrin accumulation in skin; assay: Digital fluorescence gross photography of porphyrin accumulation after intradermal ALA; assay type: in vivo, Yorkshire swine
Source text: as §1, §2
For each concentration, 12 repetitions were performed for statistical validation. One centimeter separated each site of application from others at the same concentration. After ALA administration, the skin was occluded with plastic sheeting (Saran wrap) and covered with aluminum foil, to avoid light exposure during a 3-hour period for ALA metabolism.
as §3
Fluorescence photography was performed using a 420 nm bandwidth excitation filter, and >600 nm long pass emission filter mounted on a digital camera (Nikon D70, Nikon Corporation, Tokyo, Japan) with fixed-focus and fixed-field with 10 cm field of view. A fluorescent tape (Small Flags—Pink, Redi-Tag Corporation, Cypress, Calif., USA) was attached to the fixed-field area to compare the fluorescence produced from the skin. Fluorescence photography was performed at baseline, after 3 hours of incubation, immediately after red light exposure, and 24 hours after the application of the drug for each ALA application and control test sites.
Every gross fluorescent photograph was analyzed using the WCIF—Image J 1.37c software—Wayne Rasband National Institutes of Health, USA. In this software, pixel analysis is transformed into numeric values. […]

[4] = pH and stability of ALA solutions; assay type: physicochemical; conditions: unbuffered
Method: as §2

[5] = system: skin structures; assay: Histopathology (H&E) of skin structures 24 hours after ALA-PDT; assay type: in vivo, Yorkshire swine
Source text: as §1, §2, §3
(§4) From each experimental skin area, a series 8 mm punch biopsies were taken and immediately split vertically in half with a razor blade. For each biopsy, half was prepared as a fresh-frozen specimen to localize the PpIX accumulation by fluorescence microscopy. The other half was processed for routine hematoxylin-eosin (H&E) staining. At baseline (B0), after 3 hours of incubation (B1), and after 24 hours (B2) a biopsy was performed in each area. Biopsies for fluorescence microscopy were also taken from sites receiving light exposure, just after the light was administered. Frozen sections were cut into 15 μm thick samples and observed using fluorescence microscopy Zeiss Axiophot, Carls Zeiss MicroImaging GmbH, Gottinger, Germany at 10× magnification; samples were also imaged by confocal microscopy (True Confocal Scanner—Leica TCSNT, Leica Mikroscopie und Systeme GmbH, Heidelberg, Germany) at 40× magnification. Routine H&E histology was performed to analyze PDT effect within the skin structures. Biopsy sites were separated from each other by at least 1 cm. […]

[6] = system: porphyrin accumulation in cutaneous structures; assay: Fluorescence microscopy of fresh-frozen skin biopsies for porphyrin (PpIX) distribution; assay type: in vivo, Yorkshire swine
Source text: as §1, §2, §3, §4

[7] = 0.5% injected ALA-PDT, 24 hours

Structure (SMILES): Cl.NCC(=O)CCC(=O)O [ALA, 5-Aminolevulinic acid hydrochloride]
- lowest injected ALA concentration with clinical reaction (mild erythema) ([1]; 24 hours after PDT): 0.016%
- Nikolski sign ([1]; all sites): negative
- clinical response after light exposure ([1]; injected ALA 0.0005% (lowest concentration)): no significant clinical residuum
- clinical response after PDT ([1]; injected ALA 0.25%-1.00%, necrosis generally after 24 hours): extensive purpura with skin necrosis
- gross skin reaction ([1]; injected ALA and light exposure, after 24 hours): much more uniform gross skin reaction
- clinical response during red light irradiation ([1]; injected ALA from 0.016% to 1.0%): intense vasospasm
- clinical response after light exposure ([1]; injected ALA less or equal to 0.016%, light 3 hours after injection): only erythematous macules near each injection puncture site
- reaction to ALA injection before light exposure ([1]; intradermal injection, 3-hour incubation): mild transient “bleb” papule
- skin response ([1]; topical 20% ALA and light exposure, after 24 hours): non-uniform skin response, with much greater inflammation around hair follicles
- stability of aqueous solutions [2]: unstable over long periods
- porphyrin accumulation by gross fluorescence ([3]; 2-4 mm deep injected ALA lower than 0.0005%): low but detectable level of porphyrin accumulation
- lowest injected ALA concentration with positive fluorescence in photographs ([3]; 3 hours after intradermal administration, solutions 1.0% to 0.0005%): 0.004%
- lowest injected ALA concentration with statistically significantly increased fluorescence vs uninjected control sites (pixel value analysis) ([3]; 3 hours incubation): 0.004%
- fluorescence compared to control and light only sites ([3]; ALA less than or equal to 0.002%, p≦2×10^−5): significant fluorescence
- fluorescence immediately after red light PDT ([3]; all sites, 635 nm): no fluorescence
- porphyrin accumulation by gross fluorescence ([3]; injected ALA greater than 0.002%): dose-dependent porphyrin accumulation
- ALA solution pH ([4]; 0.004 to 0.0005% ALA in normal saline): ~7
- ALA solution pH ([4]; 0.250 to 0.008% ALA in normal saline): ~5
- ALA solution pH ([4]; 0.500% ALA in normal saline): ~3
- ALA solution pH ([4]; 1.000% ALA in normal saline): ~1
- fat septae damage ([5]; 0.002% injected ALA-PDT): Massive fat septae necrosis
- damage to hair follicle, adnexal glands and fat ([5]; 0.5% injected ALA-PDT): Non-selective destruction
- epidermis changes [5, 7]: no relevant changes
- superficial vessel findings [5, 7]: superficial vessel inflammation with blood stagnation
- eccrine gland damage ([5]; all ALA concentrations, more so 1% to 0.06%): Massive eccrine gland necrosis
- fat damage ([5]; all injected ALA concentrations): observed with all concentrations
- epidermis reaction ([5]; all samples, 24 hours after PDT): little or no reaction
- vascular destruction in deep vessels of the fat septae ([5]; injected ALA 0.0005% (most diluted)): maximal vascular destruction
- fat damage intensity ([5]; injected ALA 0.0005-0.016%): more intense
- fat effect at very low concentrations ([5]; injected ALA 0.016 to 0.0005% (≦0.016%), 2-4 mm deep, hydrochloride): localized fat necrosis without clinical evidence of inflammation; also recorded: targeted fat and deep vessels without clinical inflammation
- superficial fat inflammation ([5]; injected ALA 0.06%): mild inflammation
- eccrine gland selectivity of damage ([5]; injected ALA 0.06%, hydrochloride): selective destruction of some eccrine glands; also recorded: Selective eccrine gland damage; also recorded: selectively targeted eccrine glands; also recorded: Selective reaction of eccrine glands
- vascular findings in superficial and deep vessels ([5]; injected ALA 0.25-1.00%, 24 hours after PDT): extensive perivascular and vascular mixed inflammatory cell infiltrates
- vascular PDT reaction ([5]; injected ALA ≧0.25% with high fluence red light): potent vascular PDT reaction
- apocrine gland damage ([5]; injected ALA-PDT): signs of some preferential damage
- perifollicular inflammation ([5]; mainly injected ALA 1%-0.016%): mild perifollicular inflammation
- lowest injected ALA concentration inducing porphyrin accumulation ([6]; down to and including): 0.0005%
- injected ALA concentration at which epithelial skin structures (hair follicles, sebaceous glands, epidermis) showed fluorescence ([6]; in vivo): ≥ 0.25%
- subcutaneous fat fluorescence ([6]; injected ALA 0.0005%): present
- vessel fluorescence ([6]; injected ALA 0.50%): Some vessels also fluoresced
- epidermal fluorescence ([6]; injected ALA 1.0% and 0.5%, prior to light): Full thickness epidermal fluorescence
- fluorescence of superficial and deep hair follicles ([6]; injected ALA 1% to 0.03%): mostly present
- epidermal fluorescence ([6]; injected ALA below 0.06%): negative
- stratum corneum fluorescence ([6]; injected ALA below 0.06%): positive fluorescence
- localisation of porphyrin fluorescence ([6]; injected ALA ≦0.002%, 2-4 mm deep): limited to the area where the drug was injected
- eccrine gland porphyrin fluorescence ([6]; injected ALA ≧0.03%): strong porphyrin fluorescence
- superficial fat fluorescence ([6]; injected ALA, all concentrations tested, fading with dilution): strong fluorescence
- lowest ALA concentration with sebaceous gland fluorescence ([6]; injected, prior to light): 0.50%
- lowest ALA concentration with positive eccrine gland fluorescence ([6]; injected, less intense but still positive): 0.005%
